Measured values reported in US20070238723A1, “Benzoxazinyl-amidocyclopentyl-heterocyclic modulators of chemokine receptors” (priority 2004, published 2007).

Target: T1, CCR-2 receptor (Homo sapiens, UniProt P41597)
T1 construct: the endogenous CCR-2 receptor on various cell types including monocytes, THP-1 cells; endogenous in cells; host or cells: monocytes, THP-1 cells (or unnamed eukaryotic cells expressing the cloned receptor)
Experiment: CCR-2 binding assay (inhibition of 125I-MCP-1 binding)
Details: qualitative comparison among separated isomers; assay not given
Experimental: Receptor affinity in a CCR-2 binding assay was determined by measuring inhibition of ^125I-MCP-1 to the endogenous CCR-2 receptor on various cell types including monocytes, THP-1 cells, or after heterologous expression of the cloned receptor in eukaryotic cells. The cells were suspended in binding buffer (50 mM HEPES, pH 7.2, 5 mM MgCl2, 1 mM CaCl2, and 0.50% BSA) with and added to test compound or DMSO and ^125I-MCP-1 at room temperature for 1 h to allow binding. The cells were then collected on GFB filters, washed with 25 mM HEPES buffer containing 500 mM NaCl and cell bound ^125I-MCP-1 was quantified.

T1 sequence (P41597 whole entry): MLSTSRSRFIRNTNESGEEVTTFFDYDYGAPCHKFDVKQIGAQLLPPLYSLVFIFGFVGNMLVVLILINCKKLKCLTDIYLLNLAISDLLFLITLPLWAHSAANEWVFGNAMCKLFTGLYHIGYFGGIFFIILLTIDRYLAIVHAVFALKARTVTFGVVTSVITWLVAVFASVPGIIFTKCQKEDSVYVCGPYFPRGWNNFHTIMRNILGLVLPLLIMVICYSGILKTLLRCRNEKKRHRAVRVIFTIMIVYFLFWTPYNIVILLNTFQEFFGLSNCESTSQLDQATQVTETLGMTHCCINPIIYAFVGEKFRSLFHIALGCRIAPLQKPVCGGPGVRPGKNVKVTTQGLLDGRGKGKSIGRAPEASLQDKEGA

CCOC(=O)c1cccc(C2CCN([C@@H]3CC[C@](C(C)=O)(C(=O)N4COc5ccc(C(F)(F)F)cc5C4)C3)CC2)c1 (single isomer, unassigned) [Peak 3]
potency relative to other stereoisomers: best potency
